Legend:
[1] = system: Adjuvant induced arthritis; assay: Adjuvant induced arthritis in the rat (primary lesion, paw swelling); type: in vivo, rat (Royal Hart, Wistar strain); details: once daily days 0 to 13
Method: Adjuvant induced arthritis in the rat
Groups of three Royal Hart, Wistar strain rats weighing 200±10 g. each were injected intradermally in the right hind paw with Freund's adjuvant (dried human tubercle bacilli in a mineral oil vehicle) at a dose of 2 mg./kg. of body weight. The test compounds were administered orally in a 1.5% starch vehicle at various doses once daily on days 0 to 13 post challenge. Control rats were treated in a similar manner, but given only starch vehicle. On the 14th and 21st day post challenge the diameter of the injected paw was measured by micrometer caliper. The volume of inflamed paws were estimated from these measurements and the effects of each compound are expressed as percent inhibition of swelling was compared to controls. Table I records the results of these tests conducted with representative compounds of this invention and known anti-inflammatory agents. The active compounds of this invention suppress the progression of the arthritis and associated joint deterioration.

[2] = system: arthritic paw swelling; joint and bone deterioration; details: literature (S. Wong et al.; G. R. Bobalick et al.); cited from earlier work

SMILES: CC(=O)Oc1ccccc1C(=O)O [Aspirin]
- (Primary Lesion) % Inhibition of Swelling Day 14 ([1]; oral 50 mg./kg.): 23%
- (Primary Lesion) % Inhibition of Swelling Day 21 ([1]; oral 50 mg./kg.): 3%
- (Primary Lesion) % Inhibition of Swelling Day 14 ([1]; oral 100 mg./kg.): 36%
- (Primary Lesion) % Inhibition of Swelling Day 21 ([1]; oral 100 mg./kg.): 13%
- (Primary Lesion) % Inhibition of Swelling Day 14 ([1]; oral 200 mg./kg.): 48%
- (Primary Lesion) % Inhibition of Swelling Day 21 ([1]; oral 200 mg./kg.): 27%
- (Primary Lesion) % Inhibition of Swelling Day 14 ([1]; oral 400 mg./kg.): 73%
- (Primary Lesion) % Inhibition of Swelling Day 21 ([1]; oral 400 mg./kg.): 48%

SMILES: N#CCC(=O)c1ccc(F)cc1.[Na] [p-Fluorobenzoylacetonitrile sodium salt, p-Fluorobenzoylacetonitrile, sodium salt]
- (Primary Lesion) % Inhibition of Swelling Day 14 ([1]; oral 50 mg./kg.): 53%
- (Primary Lesion) % Inhibition of Swelling Day 21 ([1]; oral 50 mg./kg.): 32%

SMILES: CCCCC1C(=O)N(c2ccccc2)N(c2ccccc2)C1=O [Phenylbutazone]
- (Primary Lesion) % Inhibition of Swelling Day 14 ([1]; oral 18.5 mg./kg.): 31%
- (Primary Lesion) % Inhibition of Swelling Day 21 ([1]; oral 18.5 mg./kg.): 7%
- (Primary Lesion) % Inhibition of Swelling Day 14 ([1]; oral 37.5 mg./kg.): 56%
- (Primary Lesion) % Inhibition of Swelling Day 21 ([1]; oral 37.5 mg./kg.): 14%
- (Primary Lesion) % Inhibition of Swelling Day 14 ([1]; oral 75 mg./kg.): 62%
- (Primary Lesion) % Inhibition of Swelling Day 21 ([1]; oral 75 mg./kg.): 28%
- (Primary Lesion) % Inhibition of Swelling Day 14 ([1]; oral 150 mg./kg.): 75%
- (Primary Lesion) % Inhibition of Swelling Day 21 ([1]; oral 150 mg./kg.): 44%

SMILES: N#CCC(=O)c1ccccc1.[Na] [Benzoylacetonitrile sodium salt, Benzoylacetonitrile, sodium salt]
- (Primary Lesion) % Inhibition of Swelling Day 14 ([1]; oral 50 mg./kg.): 59%
- (Primary Lesion) % Inhibition of Swelling Day 21 ([1]; oral 50 mg./kg.): 45%

SMILES: COc1ccc2c(c1)c(CC(=O)O)c(C)n2C(=O)c1ccc(Cl)cc1 [Indomethacin]
- (Primary Lesion) % Inhibition of Swelling Day 14 ([1]; oral 0.25 mg./kg.): 30%
- (Primary Lesion) % Inhibition of Swelling Day 21 ([1]; oral 0.25 mg./kg.): 4%
- (Primary Lesion) % Inhibition of Swelling Day 14 ([1]; oral 0.5 mg./kg.): 40%
- (Primary Lesion) % Inhibition of Swelling Day 21 ([1]; oral 0.5 mg./kg.): 20%
- (Primary Lesion) % Inhibition of Swelling Day 14 ([1]; oral 1 mg./kg.): 46%
- (Primary Lesion) % Inhibition of Swelling Day 21 ([1]; oral 1 mg./kg.): 19%
- (Primary Lesion) % Inhibition of Swelling Day 14 ([1]; oral 2 mg./kg.): 51%
- (Primary Lesion) % Inhibition of Swelling Day 21 ([1]; oral 2 mg./kg.): 24%
- arthritic paw swelling [2]: inhibit arthritic paw swelling
- joint and bone deterioration [2]: prevent joint and bone deterioration

Reference: patent US4197312A, “Alkali metal and alkaline earth metal salts of benzoylacetonitriles” (American Cyanamid Company, priority 1978, dated 1980)
